Data as given in ChEMBL document CHEMBL4420076, “Amylin and calcitonin receptor agonist” (2017).
pEC50, pIC50: −log10 of the molar value. Numbered stars: 1 amine (or outer) side, 2 acyl side, 3 side chain; on linkers, the order of the positions; unused ones are H or OH. Peptide text beside a SMILES is read from it. * marks the point of attachment. C20 diacid = O=C(O)CCCCCCCCCCCCCCCCCCC(=O)*; C18 diacid = O=C(O)CCCCCCCCCCCCCCCCC(=O)*; γGlu = O=C(O)[C@H](CCC(=O)[*:2])N[*:1]

Columns and labels:
Calcitonin receptor [1] = target: T1, Calcitonin receptor (Homo sapiens, UniProt P30988); assay: Agonist activity at human calcitonin receptor expressed in BHK570 cells assessed as increase in intracellular cAMP concentration incubated for 3 hrs in absence of albumin by CRE luciferase reporter gene assay; assay type: functional, cell-based
T1 sequence (P30988 whole entry): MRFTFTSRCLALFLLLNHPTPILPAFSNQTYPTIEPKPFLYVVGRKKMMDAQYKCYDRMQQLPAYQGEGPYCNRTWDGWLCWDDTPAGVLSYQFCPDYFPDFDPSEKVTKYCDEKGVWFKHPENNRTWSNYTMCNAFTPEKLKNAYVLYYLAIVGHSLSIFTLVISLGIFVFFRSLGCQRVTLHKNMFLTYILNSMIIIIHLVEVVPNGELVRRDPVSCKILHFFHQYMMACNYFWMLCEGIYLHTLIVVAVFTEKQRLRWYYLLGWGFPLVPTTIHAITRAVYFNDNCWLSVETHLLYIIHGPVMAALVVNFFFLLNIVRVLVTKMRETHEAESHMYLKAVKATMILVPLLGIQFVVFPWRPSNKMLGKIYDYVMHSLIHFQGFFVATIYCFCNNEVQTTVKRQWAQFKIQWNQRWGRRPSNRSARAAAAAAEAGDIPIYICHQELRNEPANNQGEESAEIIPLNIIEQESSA

Calcitonin receptor [2] = target: T1, Calcitonin receptor; assay: Agonist activity at human calcitonin receptor expressed in BHK570 cells assessed as increase in intracellular cAMP concentration incubated for 3 hrs in presence of 10% FBS by CRE luciferase reporter gene assay; assay type: functional, cell-based
[3] = Solubility in 100 mM glycylglycine buffer at pH 3.0 incubated for 18 hrs by UPLC analysis; assay type: physicochemical
[4] = Solubility in 100 mM glycylglycine buffer at pH 4.0 incubated for 18 hrs by UPLC analysis; assay type: physicochemical
[5] = Solubility in 100 mM bistrispropane buffer at pH 6.0 incubated for 18 hrs by UPLC analysis; assay type: physicochemical
[6] = Solubility in 100 mM glycylglycine buffer at pH 5.0 incubated for 18 hrs by UPLC analysis; assay type: physicochemical
[7] = Solubility in 100 mM bistrispropane buffer at pH 6.5 incubated for 18 hrs by UPLC analysis; assay type: physicochemical
[8] = Solubility in 100 mM bistrispropane buffer at pH 7.0 incubated for 18 hrs by UPLC analysis; assay type: physicochemical
[9] = Solubility in 100 mM bistrispropane buffer at pH 7.5 incubated for 18 hrs by UPLC analysis; assay type: physicochemical
[10] = Solubility in 100 mM bistrispropane buffer at pH 8.0 incubated for 18 hrs by UPLC analysis; assay type: physicochemical
[11] = target: T2, Amylin receptor AMY3; CALCR/RAMP3 (Homo sapiens, UniProt O60896+P30988); assay: Displacement of [125I]-labeled rat amylin from human amylin receptor expressed in BHK tkts13 whole cells co-expressing RAMP3 incubated for 60 mins by scintillation proximity assay; assay type: cell-based
T2 sequence (P30988 whole entry): T1 sequence (P30988 whole entry)
T2 sequence (O60896 whole entry): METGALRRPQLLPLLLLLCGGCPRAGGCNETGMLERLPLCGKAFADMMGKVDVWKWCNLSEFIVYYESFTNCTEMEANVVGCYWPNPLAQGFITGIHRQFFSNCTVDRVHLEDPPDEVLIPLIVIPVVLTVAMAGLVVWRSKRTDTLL

[12] = target: T2, Amylin receptor AMY3; CALCR/RAMP3; assay: Agonist activity at human amylin receptor expressed in BHK570 cells co-expressing RAMP3 assessed as increase in intracellular cAMP concentration incubated for 3 hrs in absence of albumin by CRE luciferase reporter gene assay; assay type: functional, cell-based

Row | SMILES | pEC50 (Calcitonin receptor [1]) | pEC50 (Calcitonin receptor [2]) | solubility at 18 h [3] | solubility at 18 h [4] | solubility at 18 h [5] | solubility at 18 h [6] | solubility at 18 h [7] | solubility at 18 h [8] | solubility at 18 h [9] | solubility at 18 h [10] | pIC50 [11] | pEC50 [12]
1 | CC(C)C[C@H](NC(=O)[C@H](CCCNC(=N)N)NC(=O)CNC(=O)[C@H](CC(C)C)NC(=O)[C@@H](NC(=O)[C@H](C)NC(=O)[C@@H](NC(=O)[C@@H](NC(=O)[C@H](CC(C)C)NC(=O)[C@H](CCC(=O)O)NC(=O)[C@H](CO)NC(=O)[C@H](C)NC(=O)CC[C@H](NC(=O)CCCCCCCCCCCCCCCCC(=O)O)C(=O)O)[C@@H](C)O)[C@@H](C)O)C(C)C)C(=O)N[C@@H](CCC(=O)O)C(=O)N[C@@H](C)C(=O)N[C@@H](CCC(=O)O)C(=O)N[C@@H](CC(C)C)C(=O)N[C@@H](Cc1cnc[nH]1)C(=O)N[C@@H](CCC(=O)O)C(=O)N[C@@H](CC(C)C)C(=O)N[C@H](C(=O)N[C@H](C(=O)N[C@@H](CC(C)C)C(=O)N1CCC[C@H]1C(=O)N[C@@H](CCCNC(=N)N)C(=O)N[C@H](C(=O)N[C@@H](CCC(=O)O)C(=O)N[C@H](C(=O)NCC(=O)N[C@H](C(=O)NCC(=O)N[C@H](C(=O)N1CCC[C@H]1C(N)=O)[C@@H](C)O)[C@@H](C)O)[C@@H](C)O)[C@@H](C)O)[C@@H](C)O)[C@@H](C)O ({C18 diacid-γGlu}-ASELTTAVLGRLEAELHELTTLPRTETGTGTP-NH2) | 10.18 | 10.51 | ≥ 200 µM | ≥ 200 µM | ≥ 200 µM | ≥ 200 µM | ≥ 200 µM | ≥ 200 µM | ≥ 200 µM | ≥ 200 µM | 7.71 | –
2 | CC(C)C[C@H](NC(=O)[C@H](C)NC(=O)[C@H](C)NC(=O)[C@@H](NC(=O)[C@H](CO)NC(=O)[C@H](CC(C)C)NC(=O)[C@H](CCC(=O)O)NC(=O)[C@H](CO)NC(=O)[C@H](C)NC(=O)CC[C@H](NC(=O)CCCCCCCCCCCCCCCCCCC(=O)O)C(=O)O)[C@@H](C)O)C(=O)NCC(=O)N[C@@H](Cc1cnc[nH]1)C(=O)N[C@@H](CC(C)C)C(=O)N[C@@H](CO)C(=O)N[C@@H](C)C(=O)N[C@@H](CCC(=O)O)C(=O)N[C@@H](CC(C)C)C(=O)N[C@@H](Cc1cnc[nH]1)C(=O)N[C@@H](CCC(=O)O)C(=O)N[C@@H](CC(C)C)C(=O)N[C@@H](C)C(=O)N[C@H](C(=O)N[C@@H](CC(C)C)C(=O)N1CCC[C@H]1C(=O)N[C@@H](Cc1cnc[nH]1)C(=O)N[C@H](C(=O)N[C@@H](CCC(=O)O)C(=O)N[C@H](C(=O)NCC(=O)N[C@H](C(=O)NCC(=O)N[C@H](C(=O)N1CCC[C@H]1C(N)=O)[C@@H](C)O)[C@@H](C)O)[C@@H](C)O)[C@@H](C)O)[C@@H](C)O ({C20 diacid-γGlu}-ASELSTAALGHLSAELHELATLPHTETGTGTP-NH2) | 10.62 | – | ≥ 200 µM | ≥ 200 µM | ≥ 200 µM | ≥ 200 µM | ≥ 200 µM | ≥ 200 µM | ≥ 200 µM | ≥ 200 µM | 8.82 | 10.19
3 | CC(C)C[C@H](NC(=O)[C@H](C)NC(=O)[C@H](C)NC(=O)[C@@H](NC(=O)[C@H](CO)NC(=O)[C@H](CC(C)C)NC(=O)[C@H](CCC(=O)O)NC(=O)[C@H](CO)NC(=O)[C@H](C)NC(=O)CC[C@H](NC(=O)CCCCCCCCCCCCCCCCCCC(=O)O)C(=O)O)[C@@H](C)O)C(=O)NCC(=O)N[C@@H](CCCNC(=N)N)C(=O)N[C@@H](CC(C)C)C(=O)N[C@@H](CO)C(=O)N[C@@H](C)C(=O)N[C@@H](CCC(=O)O)C(=O)N[C@@H](CC(C)C)C(=O)N[C@@H](Cc1cnc[nH]1)C(=O)N[C@@H](CCC(=O)O)C(=O)N[C@@H](CC(C)C)C(=O)N[C@@H](C)C(=O)N[C@H](C(=O)N[C@@H](CC(C)C)C(=O)N1CCC[C@H]1C(=O)N[C@@H](CCCNC(=N)N)C(=O)N[C@H](C(=O)N[C@@H](CCC(=O)O)C(=O)N[C@H](C(=O)NCC(=O)N[C@H](C(=O)NCC(=O)N[C@H](C(=O)N1CCC[C@H]1C(N)=O)[C@@H](C)O)[C@@H](C)O)[C@@H](C)O)[C@@H](C)O)[C@@H](C)O ({C20 diacid-γGlu}-ASELSTAALGRLSAELHELATLPRTETGTGTP-NH2) | 10.35 | 10.25 | ≥ 200 µM | ≥ 200 µM | ≥ 200 µM | ≥ 200 µM | ≥ 200 µM | ≥ 200 µM | ≥ 200 µM | ≥ 200 µM | 9.22 | 10.30
4 | CC(C)C[C@H](NC(=O)[C@H](C)NC(=O)[C@H](C)NC(=O)[C@@H](NC(=O)[C@H](CO)NC(=O)[C@H](CC(C)C)NC(=O)[C@H](CCC(=O)O)NC(=O)[C@H](CO)NC(=O)[C@H](C)NC(=O)CC[C@H](NC(=O)CCCCCCCCCCCCCCCCCCC(=O)O)C(=O)O)[C@@H](C)O)C(=O)NCC(=O)N[C@@H](CCCNC(=N)N)C(=O)N[C@@H](CC(C)C)C(=O)N[C@@H](CO)C(=O)N[C@@H](C)C(=O)N[C@@H](CCC(=O)O)C(=O)N[C@@H](CC(C)C)C(=O)N[C@@H](Cc1cnc[nH]1)C(=O)N[C@@H](CCC(=O)O)C(=O)N[C@@H](CC(C)C)C(=O)N[C@@H](C)C(=O)N[C@H](C(=O)N[C@@H](Cc1ccc(O)cc1)C(=O)N1CCC[C@H]1C(=O)N[C@@H](CCCNC(=N)N)C(=O)N[C@H](C(=O)N[C@@H](CCC(=O)O)C(=O)N[C@H](C(=O)NCC(=O)N[C@@H](CO)C(=O)NCC(=O)N[C@@H](CO)C(=O)N1CCC[C@H]1C(=O)NCC(=O)O)[C@@H](C)O)[C@@H](C)O)[C@@H](C)O ({C20 diacid-γGlu}-ASELSTAALGRLSAELHELATYPRTETGSGSPG-OH) | 10.19 | 10.30 | – | – | – | – | – | – | – | – | 8.14 | 9.73

Results, then the molecule that gave them:

Row | pEC50 (Calcitonin receptor [1]) | pEC50 (Calcitonin receptor [2]) | solubility at 18 h [3] | solubility at 18 h [4] | solubility at 18 h [5] | solubility at 18 h [6] | solubility at 18 h [7] | solubility at 18 h [8] | solubility at 18 h [9] | solubility at 18 h [10] | pIC50 [11] | pEC50 [12] | SMILES
5 | – | 10.28 | – | – | – | – | – | – | – | – | 7.68 | 9.62 | CC(C)C[C@H](NC(=O)[C@H](C)NC(=O)[C@H](C)NC(=O)[C@@H](NC(=O)[C@H](CO)NC(=O)[C@H](CC(C)C)NC(=O)[C@H](CCC(=O)O)NC(=O)[C@H](CO)NC(=O)[C@H](C)NC(=O)CC[C@H](NC(=O)CCCCCCCCCCCCCCCCCCC(=O)O)C(=O)O)[C@@H](C)O)C(=O)NCC(=O)N[C@@H](CCCNC(=N)N)C(=O)N[C@@H](CC(C)C)C(=O)N[C@@H](CO)C(=O)N[C@@H](C)C(=O)N[C@@H](CCC(=O)O)C(=O)N[C@@H](CC(C)C)C(=O)N[C@@H](Cc1cnc[nH]1)C(=O)N[C@@H](CCC(=O)O)C(=O)N[C@@H](CC(C)C)C(=O)N[C@@H](C)C(=O)N[C@H](C(=O)N[C@@H](Cc1ccc(O)cc1)C(=O)N1CCC[C@H]1C(=O)N[C@@H](CCCNC(=N)N)C(=O)N[C@H](C(=O)N[C@@H](CCC(=O)O)C(=O)N[C@H](C(=O)NCC(=O)N[C@@H](CO)C(=O)NCC(=O)N[C@@H](CO)C(=O)N1CCC[C@H]1C(=O)N[C@@H](CCCCN)C(=O)O)[C@@H](C)O)[C@@H](C)O)[C@@H](C)O ({C20 diacid-γGlu}-ASELSTAALGRLSAELHELATYPRTETGSGSPK-OH)
6 | 10.74 | 10.17 | ≥ 200 µM | – | ≥ 200 µM | – | ≥ 200 µM | ≥ 200 µM | ≥ 200 µM | ≥ 200 µM | 9.37 | 10.27 | CC(C)C[C@H](NC(=O)CNC(=O)[C@H](CO)NC(=O)[C@H](C)NC(=O)CC[C@H](NC(=O)CCCCCCCCCCCCCCCCCCC(=O)O)C(=O)O)C(=O)N[C@@H](CO)C(=O)N[C@H](C(=O)N[C@@H](C)C(=O)N[C@@H](C)C(=O)N[C@@H](CC(C)C)C(=O)NCC(=O)N[C@@H](CCCNC(=N)N)C(=O)N[C@@H](CC(C)C)C(=O)N[C@@H](CO)C(=O)N[C@H](C(=O)N[C@@H](CCC(=O)O)C(=O)N[C@@H](CC(C)C)C(=O)N[C@@H](Cc1cnc[nH]1)C(=O)N[C@@H](CCC(=O)O)C(=O)N[C@@H](CC(C)C)C(=O)N[C@@H](CCC(=O)O)C(=O)N[C@H](C(=O)N[C@@H](Cc1ccc(O)cc1)C(=O)N1CCC[C@H]1C(=O)N[C@@H](CCCNC(=N)N)C(=O)N[C@H](C(=O)N[C@@H](CCC(=O)O)C(=O)N[C@H](C(=O)NCC(=O)N[C@@H](CO)C(=O)NCC(=O)N[C@H](C(=O)N[C@@H](Cc1ccc(O)cc1)C(N)=O)[C@@H](C)O)[C@@H](C)O)[C@@H](C)O)[C@@H](C)O)[C@@H](C)O)[C@@H](C)O ({C20 diacid-γGlu}-ASGLSTAALGRLSTELHELETYPRTETGSGTY-NH2)
